# Test results taken from patent US20030199514A1, “Methods for improving efficacy of treatment with growth hormone secretagogues” (priority 2002, published 2003).
# System: urinary nitrogen excretion
# Assay: Phase I double-blind, placebo-controlled, multiple dose evaluation of test compound in calorically restricted, obese men and women
# Format: in vivo, human
# Settings: obese subjects on caloric-restricted diet, 3 mg po tid, 6 mg po tid or 10 mg po qam for seven days
# Method: Phase I Double-Blind, Placebo-Controlled, Multiple Dose Evaluation of Test Compound in Calorically Restricted, Obese Men and Women
# A total of 48 obese subjects, with a negative exercise tolerance test and without significant other medical problems, were recruited for this study and placed on a caloric-restricted diet. Subjects were randomized to either placebo, 3 mg po tid, 6 mg po tid or 10 mg po qam of the test compound, 2-amino-N-[2-(3a-(R)-benzyl-2-methyl-3-oxo-2,3,3a,4,6,7-hexahydro-pyrazolo[4,3-c]pyridin-5-yl)-1-(R)-benzyloxymethyl-2-oxo-ethyl]-isobutyramide, L-tartrate, for a total of seven days.
# The primary efficacy outcome variable of this study was urinary nitrogen excretion. Breakdown of protein (protein catabolism) may be measured by urinary nitrogen excretion. The covariates determined in this study included: 1.) gender; 2.) serum total and free testosterone; and 3.) serum total and free estradiol.
structure (smiles),measurement,setting,value
"CN1N=C2CCN(C(=O)[C@@H](COCc3ccccc3)NC(=O)C(C)(C)N)C[C@@]2(Cc2ccccc2)C1=O.O=C(O)C(O)C(O)C(=O)O [test compound, 2-amino-N-[2-(3a-(R)-benzyl-2-methyl-3-oxo-2,3,3a,4,6,7-hexahydro-pyrazolo[4,3-c]pyridin-5-yl)-1-(R)-benzyloxymethyl-2-oxo-ethyl]-isobutyramide, L-tartrate]",effect on urinary nitrogen (excretion),men,manifest in men
same,effect on urinary nitrogen (excretion),women,modest effects of treatment in women
